Like-named read-outs stand apart in the source and are kept apart here.
Columns and labels:
CDK2 (cyclin A) = target: T1, CDK2 (cyclin A) (Homo sapiens, UniProt P24941); experiment: Z'-LYTE kinase assay; format: biochemical
T1 construct: purchased Invitrogen Life Technologies (assay service)
Method in brief: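 FRET-based Z′-LYTE read-out using 1.22–10.3 ng CDK2/cyclin A with Ser/Thr 12 peptide (2 μM in the 2× mix) and ATP (31 μM as the 4× solution), in HEPES pH 7.5, MgCl2, EGTA and BRIJ-35, for 60 min at room temperature. After 1 h of development, the 445/520 nm emission was read, and percent inhibition was fitted to a four-parameter logistic curve for IC50.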

CDK1 (cyclin B) = target: T2, CDK1 (cyclin B) (Homo sapiens, UniProt P06493); experiment: Z'-LYTE kinase assay; format: biochemical
T2 construct: purchased Invitrogen Life Technologies (assay service)
T2 sequence (P06493 whole entry): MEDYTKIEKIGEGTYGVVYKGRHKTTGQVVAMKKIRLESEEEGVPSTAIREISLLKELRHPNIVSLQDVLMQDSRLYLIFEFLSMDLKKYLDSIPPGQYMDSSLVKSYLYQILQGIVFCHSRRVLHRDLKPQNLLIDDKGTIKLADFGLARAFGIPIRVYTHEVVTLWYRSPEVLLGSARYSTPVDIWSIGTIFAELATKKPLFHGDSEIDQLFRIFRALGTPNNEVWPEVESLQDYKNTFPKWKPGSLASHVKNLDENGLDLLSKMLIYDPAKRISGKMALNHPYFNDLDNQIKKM
T2 sequence (P14635 whole entry partner): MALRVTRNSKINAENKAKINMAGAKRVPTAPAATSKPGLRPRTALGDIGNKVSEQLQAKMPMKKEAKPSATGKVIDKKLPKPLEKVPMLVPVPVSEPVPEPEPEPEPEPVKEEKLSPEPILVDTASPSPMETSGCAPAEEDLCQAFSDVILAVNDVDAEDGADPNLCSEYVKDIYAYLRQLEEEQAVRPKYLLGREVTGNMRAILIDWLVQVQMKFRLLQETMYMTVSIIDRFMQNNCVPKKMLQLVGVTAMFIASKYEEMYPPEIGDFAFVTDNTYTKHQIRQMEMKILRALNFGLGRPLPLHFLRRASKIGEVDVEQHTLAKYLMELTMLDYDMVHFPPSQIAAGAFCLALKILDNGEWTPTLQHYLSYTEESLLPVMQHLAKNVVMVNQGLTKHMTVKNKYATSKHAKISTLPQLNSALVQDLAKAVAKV
Method: The plates were shaken for 30 seconds, and incubated for 60 minutes at room temperature. […] The plates were read on fluorescence plate reader with Dual emission at 445 nm and 520 nm.
The following equations were used for Z′-LYTE™ Screening Assay Data Analysis.

FMS kinase = target: T3, FMS kinase (Homo sapiens, UniProt P07333); experiment: LanthaScreen Eu Kinase Binding Assay (ATP, fluorescent-PolyGT substrate); format: biochemical
T3 construct: purchased Invitrogen (Life Technologies)
T3 sequence (P07333 20-972): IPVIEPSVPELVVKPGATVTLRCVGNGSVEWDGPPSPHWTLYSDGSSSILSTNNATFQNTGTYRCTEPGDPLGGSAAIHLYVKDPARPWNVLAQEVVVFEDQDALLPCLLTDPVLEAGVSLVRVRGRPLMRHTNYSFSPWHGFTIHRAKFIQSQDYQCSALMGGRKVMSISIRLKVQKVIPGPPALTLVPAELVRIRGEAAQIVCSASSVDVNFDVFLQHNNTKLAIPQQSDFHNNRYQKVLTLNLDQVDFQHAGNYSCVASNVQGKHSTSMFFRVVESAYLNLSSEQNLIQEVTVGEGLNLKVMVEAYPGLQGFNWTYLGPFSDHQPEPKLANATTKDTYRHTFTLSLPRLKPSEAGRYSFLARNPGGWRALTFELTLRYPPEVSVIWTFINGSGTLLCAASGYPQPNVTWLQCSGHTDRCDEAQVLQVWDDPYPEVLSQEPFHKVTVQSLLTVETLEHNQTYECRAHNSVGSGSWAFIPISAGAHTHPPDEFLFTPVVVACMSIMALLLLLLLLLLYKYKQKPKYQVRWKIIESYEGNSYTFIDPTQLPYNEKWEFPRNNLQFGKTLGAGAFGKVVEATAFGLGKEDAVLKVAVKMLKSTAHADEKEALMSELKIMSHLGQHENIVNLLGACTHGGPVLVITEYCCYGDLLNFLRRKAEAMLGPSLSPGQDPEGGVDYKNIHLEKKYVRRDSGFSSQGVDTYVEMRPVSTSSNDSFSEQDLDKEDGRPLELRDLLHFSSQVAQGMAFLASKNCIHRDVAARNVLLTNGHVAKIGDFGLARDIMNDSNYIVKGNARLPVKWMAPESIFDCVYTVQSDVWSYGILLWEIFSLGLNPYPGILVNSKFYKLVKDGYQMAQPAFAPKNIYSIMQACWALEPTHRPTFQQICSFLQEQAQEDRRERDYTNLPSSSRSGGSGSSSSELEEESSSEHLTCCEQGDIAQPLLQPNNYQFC
Method in brief: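 Kinase (1.25 nM) preincubated 10 min with 3-fold compound dilutions, then ATP 10 μM and fluorescent PolyGT substrate 200 nM added for 1 h in the dark at room temperature. Stopped with Tb-antibody (4 nM) and EDTA 20 mM; TR-FRET at 340 nm excitation, 495/520 nm emission; IC50 from four-parameter fit.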

[1] = system: DU4475 breast carcinoma cells; experiment: Cancer cell proliferation assay, single agent (cell viability); format: cell-based; settings: Homo sapiens, DU-4475; Table 4; Rb negative; treatment 144 Hr with medium change at 72 Hr; Cell Titer-Glo or resazurin
Method in brief: (§1)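 Cells seeded day 1, then exposed on day 2 to 7–9 compound concentrations (e.g. 1.1 nM–10 μM); BT-549 for 24 h, MCF-7 and DU4475 for 144 h with medium change at 72 h. Viability by CellTiter-Glo or resazurin; IC50 from variable-slope sigmoidal fit.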

[2] = system: MCF-7 breast adenocarcinoma cells; experiment: as above; format: cell-based; settings: Homo sapiens, MCF7, Table 4; Rb positive; treatment 144 Hr with medium change at 72 Hr; Cell Titer-Glo or resazurin
Method in brief: as §1

CDK4 = target: T4, CDK4 (Homo sapiens, UniProt P11802); experiment: In vitro kinase inhibition IC50, luminescence (ADP Glo), retinoblastoma substrate; format: biochemical; settings: read-out: CDK4/D1 IC50
T4 construct: purchased Invitrogen PR8064A
T4 sequence (P11802 whole entry): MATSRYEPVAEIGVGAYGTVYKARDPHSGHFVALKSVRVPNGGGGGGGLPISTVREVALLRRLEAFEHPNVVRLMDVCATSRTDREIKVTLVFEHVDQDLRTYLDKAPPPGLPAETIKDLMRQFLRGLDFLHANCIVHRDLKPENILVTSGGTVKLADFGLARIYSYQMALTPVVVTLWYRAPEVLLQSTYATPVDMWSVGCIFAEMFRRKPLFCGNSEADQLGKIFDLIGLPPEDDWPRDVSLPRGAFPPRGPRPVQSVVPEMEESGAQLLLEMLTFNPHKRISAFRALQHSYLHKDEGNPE
T4 sequence (P24385 whole entry partner): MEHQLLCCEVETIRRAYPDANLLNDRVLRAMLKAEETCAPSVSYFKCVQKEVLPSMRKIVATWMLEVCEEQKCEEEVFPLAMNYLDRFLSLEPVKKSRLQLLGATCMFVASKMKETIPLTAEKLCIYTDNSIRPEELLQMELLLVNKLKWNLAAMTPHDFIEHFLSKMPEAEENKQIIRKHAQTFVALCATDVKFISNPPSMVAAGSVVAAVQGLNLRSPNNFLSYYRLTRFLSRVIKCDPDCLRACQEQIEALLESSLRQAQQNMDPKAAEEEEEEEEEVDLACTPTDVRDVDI
Method in brief: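 CDK4 enzyme (5 nM, Invitrogen) was combined with test compound and a mix of retinoblastoma substrate (1 μM) plus ATP (25 μM) in kinase buffer, 30 μL/well in 96-well half area white plates. After 2H at room temperature, ADP Glo reagent stopped the reaction for 45 min, then detection reagent was added and luminescence was read.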

CDK6 = target: T5, CDK6 (Homo sapiens, UniProt Q00534); experiment: as above; format: biochemical; settings: read-out: CDK6/D1 IC50
T5 construct: purchased Invitrogen PR8422B
T5 sequence (Q00534 whole entry): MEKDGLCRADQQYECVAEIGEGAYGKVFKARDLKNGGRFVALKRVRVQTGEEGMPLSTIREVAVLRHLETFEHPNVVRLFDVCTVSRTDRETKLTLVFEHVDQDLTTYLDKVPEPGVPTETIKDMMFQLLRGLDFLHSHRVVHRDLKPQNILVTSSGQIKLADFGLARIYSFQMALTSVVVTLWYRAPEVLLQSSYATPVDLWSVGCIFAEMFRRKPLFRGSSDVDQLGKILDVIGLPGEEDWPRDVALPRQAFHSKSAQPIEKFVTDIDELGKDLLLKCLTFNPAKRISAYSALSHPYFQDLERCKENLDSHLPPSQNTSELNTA
T5 sequence (P24385 whole entry partner): as the sequence (P24385 whole entry partner) above
Method in brief: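 Recombinant CDK6 (5 nM) with retinoblastoma substrate (1 μM) and 25 μM ATP, compound at final 0.1–200 nM, incubated 2 h at room temperature. ADP formed detected by ADP-Glo luminescence. IC50 from four-parameter logistic fit of percent inhibition.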

IC50 (CDK2 (cyclin A)) [nM] | IC50 (CDK1 (cyclin B); read-out: CDK1/B IC50) [nM] | IC50 (FMS kinase) [nM] | IC50 [1] [nM] | IC50 [2] [nM] | IC50 (CDK4) [nM] | IC50 (CDK6) [nM] | IC50 (CDK1 (cyclin B)) [nM] | SMILES
176 | 534 | 3.5 | 320 | 120 | 12 | 12 |  | N#Cc1cc2cnc(Nc3ccc4c(c3)CCNC4)nc2n([C@H]2C[C@@H]3CC[C@H]2C3)c1=O (relative stereo) [Compound No. 354, 8-((S,2S,4R)-bicyclo[2.2.1]heptan-2-yl)-7-oxo-2-(1,2,3,4-tetrahydroisoquinolin-6-ylamino)-7,8-dihydropyrido[2,3-d]pyrimidine-6-carbonitrile]
668 | 1530 | 3 | 1240 | 405 | > 173 | > 174 |  | N#Cc1cc2cnc(Nc3ccc4c(c3)CCNC4)nc2n(CC2CCCCC2)c1=O [Compound No. 347, 8-(cyclohexylmethyl)-7-oxo-2-((1,2,3,4-tetrahydroisoquinolin-6-yl)amino)-7,8-dihydropyrido[2,3-d]pyrimidine-6-carbonitrile]
219 |  | 31 | 6840 | 725 | 62 | 55 | 1380 | CS(=O)(=O)N1CCC(Nc2ncc3cc(C#N)c(=O)n(CC4CCCCC4)c3n2)CC1 [Compound No. 348, 8-(cyclohexylmethyl)-2-((1-(methylsulfonyl)piperidin-4-yl)amino)-7-oxo-7,8-dihydropyrido[2,3-d]pyrimidine-6-carbonitrile]
235 | 2270 | > 5000 | > 30000 | > 10000 | > 200 | > 200 |  | CS(=O)(=O)N1CCC(Nc2ncc3cc(C#N)c(=O)n(C4COCC4O)c3n2)CC1 (stereo not shown) [Compound No. 350, 8-(4-hydroxytetrahydrofuran-3-yl)-2-((1-(methylsulfonyl)piperidin-4-yl)amino)-7-oxo-7,8-dihydropyrido[2,3-d]pyrimidine-6-carbonitrile]
18 | 117 | 1160 | 1400 | 205 | 48 | 15 |  | CCC(C)n1c(=O)c(C#N)cc2cnc(NC3CCN(S(C)(=O)=O)CC3)nc21 (stereo not shown) [Compound No. 351, 8-(sec-butyl)-2-((1-(methylsulfonyl)piperidin-4-yl)amino)-7-oxo-7,8-dihydropyrido[2,3-d]pyrimidine-6-carbonitrile]
29 |  | > 5000 | 1130 | 1420 | 69 | 21 | 143 | CCC(CC)n1c(=O)c(C#N)cc2cnc(NC3CCN(S(C)(=O)=O)CC3)nc21 [Compound No. 352, 2-((1-(methylsulfonyl)piperidin-4-yl)amino)-7-oxo-8-(pentan-3-yl)-7,8-dihydropyrido[2,3-d]pyrimidine-6-carbonitrile]
1870 | > 5000 | > 5000 | 3240 | 330 | 1.4 | 12 |  | N#Cc1cc2cnc(NC3CCN(S(=O)(=O)C(F)F)CC3)nc2n(C2CCCC2)c1=O [Compound No. 359, 8-cyclopentyl-2-((1-((difluoromethyl)sulfonyl)piperidin-4-yl)amino)-7-oxo-7,8-dihydropyrido[2,3-d]pyrimidine-6-carbonitrile]
30 |  | 402 | 670 |  | 3 | 5 | 325 | N#Cc1cc2cnc(NC3CCN(S(=O)(=O)CCCCCCO)CC3)nc2n(C2CCCC2)c1=O [Compound No. 378, 8-cyclopentyl-2-((1-((6-hydroxyhexyl)sulfonyl)piperidin-4-yl)amino)-7-oxo-7,8-dihydropyrido[2,3-d]pyrimidine-6-carbonitrile]
